ChEMBL document CHEMBL4627340, “Design, synthesis, and biological activity of new endomorphin analogs with multi-site modifications” (Bioorg Med Chem, 2020)
Active and inactive are the calls of the source. No cut-off for these calls is given here.

Assays:
Mu-type opioid receptor [1] = molecular target: Mu-type opioid receptor (Rattus norvegicus, UniProt P33535); assay: Displacement of [3H]-DAMGO from Wistar rat mu opioid receptor incubated for 1 hr by liquid scintillation counting method
[2] = molecular target: Delta-type opioid receptor (Rattus norvegicus, UniProt P33533); assay: Displacement of [3H]-DPDPE from Wistar rat delta opioid receptor incubated for 3 hrs by liquid scintillation counting method
Chain of Delta-type opioid receptor (P33533 whole entry): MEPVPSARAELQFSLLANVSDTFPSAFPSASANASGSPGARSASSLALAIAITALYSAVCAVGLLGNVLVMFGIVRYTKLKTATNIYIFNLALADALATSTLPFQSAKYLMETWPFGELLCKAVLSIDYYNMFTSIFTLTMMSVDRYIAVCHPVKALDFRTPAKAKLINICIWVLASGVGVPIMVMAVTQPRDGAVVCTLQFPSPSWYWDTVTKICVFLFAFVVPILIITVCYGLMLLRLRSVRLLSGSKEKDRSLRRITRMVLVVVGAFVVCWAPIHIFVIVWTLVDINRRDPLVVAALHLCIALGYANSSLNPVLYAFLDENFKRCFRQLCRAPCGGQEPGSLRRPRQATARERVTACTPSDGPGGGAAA

Mu-type opioid receptor [3] = molecular target: T1, Mu-type opioid receptor (Homo sapiens, UniProt P35372); assay: Agonist activity at mu opioid receptor (unknown origin) expressed in human HEK293 cells assessed as […] in cAMP accumulation using [3H]-cAMP as substrate measured after 30mins by liquid scintillation counting method; assay type: functional, cell-based
T1 sequence (P35372 whole entry): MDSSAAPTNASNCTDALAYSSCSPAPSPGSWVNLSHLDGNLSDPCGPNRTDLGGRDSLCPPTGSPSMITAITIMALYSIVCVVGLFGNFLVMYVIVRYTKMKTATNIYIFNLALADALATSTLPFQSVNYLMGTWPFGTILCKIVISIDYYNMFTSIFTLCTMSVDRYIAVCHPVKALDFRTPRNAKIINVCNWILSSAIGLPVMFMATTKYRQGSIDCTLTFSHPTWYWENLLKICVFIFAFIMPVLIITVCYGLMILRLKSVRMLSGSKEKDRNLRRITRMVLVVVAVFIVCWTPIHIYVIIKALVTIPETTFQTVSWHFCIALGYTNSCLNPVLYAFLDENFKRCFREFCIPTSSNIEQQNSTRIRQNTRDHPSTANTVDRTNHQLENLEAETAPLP

Mu-type opioid receptor [4] = molecular target: T1, Mu-type opioid receptor; assay: Agonist activity at mu opioid receptor (unknown origin) expressed in human HEK293 cells assessed as […] in cAMP accumulation using [3H]-cAMP as substrate measured after 30mins by liquid scintillation counting method relative to control; assay type: functional, cell-based
Mus musculus [5] = assay: Antinociceptive activity in kunming mouse models assessed as maximum possible effect at 4 nmol, icv measured from 5 to 60 mins by warm water tail-flick assay relative to control; assay type: functional
Mus musculus [6] = assay: Antinociceptive activity in kunming mouse models assessed as maximum possible effect at 0.4 nmol, icv measured from 5 to 60 mins by warm water tail-flick assay relative to control; assay type: functional
[7] = Half life in Kunming mouse brain homogenate at 10^-2 mol/L by RP-HPLC analysis; assay type: ADME, tissue-based
[8] = Half life in Kunming mouse serum at 10^-2 mol/L by RP-HPLC analysis; assay type: ADME, cell-free
Mus musculus [9] = assay: Antinociceptive activity in kunming mouse models assessed as effective dose after icv administration measured from 5 to 60 mins by warm water tail-flick assay; assay type: functional
Mus musculus [10] = assay: Antinociceptive activity in kunming mouse models of formalin-induced hyperalgesia assessed as reduction in time spent on paw shaking inflammatory phase at 4 nmol, icv measured during phase 2 at 15 to 30 mins relative to control; assay type: functional; parameters: scale not given: the % may be the effect or the level left
Mus musculus [11] = assay: Antinociceptive activity in iv dosed kunming mouse models of formalin-induced hyperalgesia assessed as reduction in pain response of paw licking measured up to 60 mins; assay type: functional, organism-based
Mus musculus [12] = assay: Antinociceptive activity in icv administered kunming mouse models of formalin-induced hyperalgesia assessed reduction in time spent on paw biting during inflammatory phase 2 at 15 to 30 mins; assay type: functional; parameters: scale not given: the % may be the effect or the level left
Mus musculus [13] = assay: Antinociceptive activity in kunming mouse models of formalin-induced hyperalgesia assessed as reduction in time spent on paw biting inflammatory phase at 4 nmol, icv measured during phase 1 at 0 to 5 mins relative to control; assay type: functional; parameters: scale not given: the % may be the effect or the level left
Mus musculus [14] = assay: Antinociceptive activity in kunming mouse models of formalin-induced hyperalgesia assessed as reduction in pain response of paw licking inflammatory phase at 0.04 nmol, icv measured during phase 1 at 0 to 5 mins relative to control; assay type: functional; parameters: scale not given: the % may be the effect or the level left
Mus musculus [15] = assay: Antinociceptive activity in kunming mouse models assessed as effective dose after iv administration by warm water tail-flick assay; assay type: functional
Mus musculus [16] = assay: Antinociceptive activity in kunming mouse models of formalin-induced hyperalgesia assessed as reduction in pain response of paw licking inflammatory phase at 4 nmol, icv measured during phase 1 at 0 to 5 mins relative to control; assay type: functional; parameters: scale not given: the % may be the effect or the level left
Mus musculus [17] = assay: Antinociceptive activity in kunming mouse models of formalin-induced hyperalgesia assessed as reduction in time spent on paw biting inflammatory phase at 4 nmol, icv measured during phase 2 at 15 to 30 mins relative to control; assay type: functional; parameters: scale not given: the % may be the effect or the level left
Mus musculus [18] = assay: Antinociceptive activity in kunming mouse models assessed as maximum possible effect at 3 mg/kg, iv measured after 5 to 60 mins by warm water tail-flick assay; assay type: functional
Mus musculus [19] = assay: Antinociceptive activity in kunming mouse models assessed as maximum possible effect at 10 mg/kg, iv measured after 5 to 60 mins co-treated with naloxone by warm water tail-flick assay; assay type: functional, organism-based
[20] = Neurotoxicity in kunming mouse models assessed as effect in locomotor activity at 10 mg/kg,iv measured up to 60 mins by rotarod test; assay type: toxicity, organism-based; conditions: in vivo, 1 h
Mus musculus [21] = assay: Antinociceptive activity in icv administered kunming mouse models of formalin-induced hyperalgesia assessed reduction in time spent on paw shaking during inflammatory phase 2 at 15 to 30 mins; assay type: functional; parameters: scale not given: the % may be the effect or the level left
Mus musculus [22] = assay: Antinociceptive activity in kunming mouse models of formalin-induced hyperalgesia assessed as reduction in time spent on paw shaking inflammatory phase at 4 nmol, icv measured during phase 1 at 0 to 5 mins relative to control; assay type: functional; parameters: scale not given: the % may be the effect or the level left
[23] = Toxicity in kunming mouse assessed as reduction in fecal dry weight at 1 to 10 mg/kg, iv after 1 hr; assay type: organism-based; conditions: in vivo
Mus musculus [24] = assay: Antinociceptive activity in kunming mouse models of acetic-acid-induced writhing assessed as inhibition of writhing numbers at 3 mg/kg, iv pretreated for 5 mins followed by acetic-acid treatment and measured for 20 mins; assay type: functional, organism-based
Mus musculus [25] = assay: Antinociceptive activity in icv administered kunming mouse models of formalin-induced hyperalgesia assessed reduction in pain response of paw licking during inflammatory phase 2 at 15 to 30 mins; assay type: functional, organism-based
Mus musculus [26] = assay: Antinociceptive activity in kunming mouse models of formalin-induced hyperalgesia assessed as reduction in time spent on paw shaking inflammatory phase at 0.04 nmol, icv measured during phase 1 at 0 to 5 mins relative to control; assay type: functional; parameters: scale not given: the % may be the effect or the level left
Mus musculus [27] = assay: Antinociceptive activity in kunming mouse models of formalin-induced hyperalgesia assessed as reduction in time spent on paw biting inflammatory phase at 0.04 nmol, icv measured during phase 1 at 0 to 5 mins relative to control; assay type: functional; parameters: scale not given: the % may be the effect or the level left
Mus musculus [28] = assay: Antinociceptive activity in kunming mouse models of formalin-induced hyperalgesia assessed as reduction in pain response of paw licking inflammatory phase at 4 nmol, icv measured during phase 2 at 15 to 30 mins relative to control; assay type: functional; parameters: scale not given: the % may be the effect or the level left
Mus musculus [29] = assay: Antinociceptive activity in kunming mouse models of acetic-acid-induced writhing assessed as inhibition of writhing numbers at 0.04 nmol, icv pretreated for 5 mins followed by acetic-acid treatment and measured for 20 mins relative to control; assay type: functional; parameters: scale not given: the % may be the effect or the level left
[30] = Toxicity in kunming mouse assessed as reduction in number of fecal pellet at 1 to 10 mg/kg, iv after 1 hr; assay type: organism-based; conditions: in vivo

Chain of Mu-type opioid receptor (Rattus norvegicus, UniProt P33535) (P33535 whole entry): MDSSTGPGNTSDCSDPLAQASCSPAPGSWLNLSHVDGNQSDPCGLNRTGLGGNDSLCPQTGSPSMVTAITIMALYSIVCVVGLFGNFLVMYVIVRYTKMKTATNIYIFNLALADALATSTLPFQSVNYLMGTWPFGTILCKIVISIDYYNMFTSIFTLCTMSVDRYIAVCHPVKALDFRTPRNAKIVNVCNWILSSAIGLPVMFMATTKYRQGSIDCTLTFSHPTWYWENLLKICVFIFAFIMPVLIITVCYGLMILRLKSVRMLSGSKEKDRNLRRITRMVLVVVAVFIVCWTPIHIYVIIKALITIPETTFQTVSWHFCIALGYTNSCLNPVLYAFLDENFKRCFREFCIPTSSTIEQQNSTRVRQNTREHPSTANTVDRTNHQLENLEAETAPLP

Compound: C=C(C(N)=O)[C@@H](NC(=O)[C@H](Cc1c[nH]c2ccccc12)NC(=O)[C@@H](CCCCN)NC(=O)[C@@H](N)Cc1ccc(O)cc1)c1ccco1
- Ki (Mu-type opioid receptor [1]): 172 nM
- Ki [2]: > 10000 nM
- EC50 (Mu-type opioid receptor [3]): 1130 nM
- Emax (Mu-type opioid receptor [4]): 65.8%

Compound: NC(=O)[C@H](Cc1ccccc1)NC(=O)[C@H](Cc1c[nH]c2ccccc12)NC(=O)[C@@H]1CCCN1C(=O)[C@@H](N)Cc1ccc(O)cc1 [ENDOMORPHIN-1]
- Activity (Mus musculus [5]): 100%
- MPE (Mus musculus [6]): 42.1%

Compound: C=C(C(N)=O)[C@@H](NC(=O)[C@H](Cc1ccccc1)NC(=O)[C@@H](CCCNC(=N)N)NC(=O)[C@@H](N)Cc1ccc(O)cc1)c1ccco1
- Ki (Mu-type opioid receptor [1]): 19.2 nM
- Ki [2]: 922 nM
- Activity (Mus musculus [5]): 100%
- EC50 (Mu-type opioid receptor [3]): 370 nM
- half-life [7]: > 300 min
- half-life [8]: > 300 min
- ED50 (Mus musculus [9]): 0.054 nmol
- MPE (Mus musculus [6]): 86.9%
- Emax (Mu-type opioid receptor [4]): 74.2%

Compound: C=C(C(N)=O)[C@@H](NC(=O)[C@H](Cc1c[nH]c2ccccc12)NC(=O)[C@@H](CCCCNC(C)=O)NC(=O)[C@@H](N)Cc1ccc(O)cc1)c1ccco1
- Ki (Mu-type opioid receptor [1]): 9.21 nM
- Ki [2]: 3580 nM
- EC50 (Mu-type opioid receptor [3]): 934 nM
- Emax (Mu-type opioid receptor [4]): 37.5%

Compound: NC(=O)[C@H](Cc1ccccc1)NC(=O)[C@H](Cc1ccccc1)NC(=O)[C@@H]1CCCN1C(=O)[C@@H](N)Cc1ccc(O)cc1 [ENDOMORPHIN 2]
- Activity (Mus musculus [5]): 100%
- half-life [7]: 12.4 min
- half-life [8]: 12.7 min
- ED50 (Mus musculus [9]): 0.96 nmol
- Emax (Mu-type opioid receptor [4]): 66.5%

Compound: C=C(C(N)=O)[C@@H](NC(=O)[C@H](Cc1c[nH]c2ccccc12)NC(=O)[C@@H](CCCNC(N)=O)NC(=O)[C@@H](N)Cc1ccc(O)cc1)c1ccco1
- Ki (Mu-type opioid receptor [1]): 5.82 nM
- Activity (Mus musculus [10]): 100%
- Activity (Mus musculus [11]): Dose-dependent effect
- Activity (Mus musculus [12]): 100%
- Ki [2]: > 10000 nM
- Activity (Mus musculus [13]): 100%
- Activity (Mus musculus [14]): 100%
- Activity (Mus musculus [5]): 100%
- ED50 (Mus musculus [15]): 2.59 nmol
- Activity (Mus musculus [16]): 100%
- EC50 (Mu-type opioid receptor [3]): 164 nM
- Activity (Mus musculus [17]): 100%
- MPE (Mus musculus [18]): 51.2%
- Activity (Mus musculus [19]): inactive
- Activity [20]: Non-Toxic
- Activity (Mus musculus [21]): 100%
- Activity (Mus musculus [22]): 100%
- half-life [7]: > 300 min
- Activity [23]: Toxic
- Activity (Mus musculus [24]): Active
- half-life [8]: > 300 min
- Activity (Mus musculus [25]): Dose-dependent effect
- Activity (Mus musculus [26]): 100%
- Activity (Mus musculus [27]): 100%
- ED50 (Mus musculus [9]): 0.037 nmol
- Activity (Mus musculus [28]): 100%
- MPE (Mus musculus [6]): 100%
- Activity (Mus musculus [29]): 100%
- Emax (Mu-type opioid receptor [4]): 78.9%
- Activity [30]: Toxic

Compound: C=C(C(N)=O)[C@@H](NC(=O)[C@H](Cc1c[nH]c2ccccc12)NC(=O)[C@@H](CCCNC(=N)N)NC(=O)[C@@H](N)Cc1ccc(O)cc1)c1ccco1
- Ki (Mu-type opioid receptor [1]): 4.9 nM
- Activity (Mus musculus [10]): 100%
- Activity (Mus musculus [12]): 100%
- Ki [2]: 955 nM
- Activity (Mus musculus [13]): 100%
- Activity (Mus musculus [14]): 100%
- Activity (Mus musculus [5]): 100%
- Activity (Mus musculus [16]): 100%
- EC50 (Mu-type opioid receptor [3]): 221 nM
- Activity (Mus musculus [17]): 100%
- Activity (Mus musculus [21]): 100%
- Activity (Mus musculus [22]): 100%
- half-life [7]: > 300 min
- half-life [8]: > 300 min
- Activity (Mus musculus [25]): Dose-dependent effect
- Activity (Mus musculus [26]): 100%
- Activity (Mus musculus [27]): 100%
- ED50 (Mus musculus [9]): 0.025 nmol
- Activity (Mus musculus [28]): 100%
- MPE (Mus musculus [6]): 94.7%
- Activity (Mus musculus [29]): 100%
- Emax (Mu-type opioid receptor [4]): 62.7%

Compound: CN1CC[C@]23c4c5ccc(O)c4O[C@H]2[C@@H](O)C=C[C@H]3[C@H]1C5 [MORPHINE]
- MPE (Mus musculus [18]): 53.6%
